Values quoted from earlier work in PubChem BioAssay AID1259409 (Chemical Carcinogenesis Research Information System (CCRIS), 2018).

System: rodent chemically induced tumor inhibition, incidence and multiplicity
Test: CCRIS tumor inhibitor studies

CCCCCCCCCCCCCCCCCCOC1=C(O)C([C@@H](O)CO)OC1=O (some centres undefined)
tumour outcome (control, treated, inhibition, significance) (Carcinogen: NONE USED, Dose [Inhibitor]: 0, 0.1% IN DIET FOR DURATION OF STUDY (STUDY DURATION: 16 MO), Route [Inhibitor]: ORAL, Species: MOUSE, Strain/Sex: C3H/HENCRJ/MALE, Target Tissue: Type of Lesion: LIVER: ADENOMA, Promoter: NONE USED): 17/43 (40%), 20/39 (51%), -28%, not calculated | tumour outcome (control, treated, inhibition, significance) (Carcinogen: NONE USED, Dose [Inhibitor]: 0, 0.1% IN DIET FOR DURATION OF STUDY (STUDY DURATION: 16 MO), Route [Inhibitor]: ORAL, Species: MOUSE, Strain/Sex: C3H/HENCRJ/MALE, Target Tissue: Type of Lesion: LIVER: CARCINOMA, Promoter: NONE USED): 11/43 (26%), 2/39 (5%), 81%, p<0.05

CC(C)(C)c1cccc(C(C)(C)C)c1O
tumour outcome (control, treated, inhibition, significance) (Carcinogen: BENZO[A]PYRENE, 50-32-8, Dose [Inhibitor]: 0.03 MMOL/G OF DIET DAILY STARTING 7 D BEFORE AND CONTINUING THROUGH 3 D AFTER CARCINOGEN TREATMENT FOLLOWED BY OBSERVAT, Route [Inhibitor]: ORAL, Species: MOUSE, Strain/Sex: ICR/FEMALE, Target Tissue: Type of Lesion: FORESTOMACH: NEOPLASM, Dose [Carcinogen]: 1 MG IN 0.2 ML CORN OIL 2/WK FOR 4 WK, Promoter: NONE USED): 94%, 79%, 16%, not significant

CC(O)CCC(=O)c1cccnc1 (centres undefined)
tumour outcome (control, treated, inhibition, significance) (Carcinogen: 4-(METHYLNITROSAMINO)-1-(3-PYRIDYL)-1-BUTANONE, 64091-91-4, Dose [Inhibitor]: 0, 25 UMOL IN 0.1 ML CORN OIL ONCE 2 HR PRIOR TO CARCINOGEN DOSE (STUDY DURATION: 16 WK), Route [Inhibitor]: GAVAGE, Species: MOUSE, Strain/Sex: STRAIN-A/FEMALE, Target Tissue: Type of Lesion: LUNG: ADENOMA, Dose [Carcinogen]: 10 UMOL IN 0.1 ML SALINE ONCE, Promoter: NONE USED): 100%, 100%, 0%, not significant

CN1[C@@H]2CC[C@H]1CC(OC(=O)C(CO)c1ccccc1)C2 (some centres undefined)
tumour outcome (control, treated, inhibition, significance) (Carcinogen: N-METHYL-N'-NITRO-N-NITROSOGUANIDINE, 70-25-7, Dose [Inhibitor]: 0, 0.5 MG/KG IN OLIVE OIL SUSPENSION 1/D BEGINNING 1 WK POST LAST CARCINOGEN DOSE AND CONTINUING FOR DURATION OF STUDY (, Species: RAT, Strain/Sex: WISTAR/MALE, Target Tissue: Type of Lesion: GLANDULAR STOMACH: ADENOCARCINOMA, Dose [Carcinogen]: 50 UG/ML IN DRINKING WATER FOR 25 WK, Promoter: NONE USED): 15/18 (83%), 15/19 (79%), 5%, not calculated

CC(=O)NCCCCCCNC(C)=O
tumour outcome (control, treated, inhibition, significance) (Carcinogen: 7,12-DIMETHYLBENZ[A]ANTHRACENE, 57-97-6, Dose [Inhibitor]: 0, 1% IN DRINKING WATER FOR DURATION OF STUDY (STUDY DURATION: 13 WK), Route [Inhibitor]: ORAL, Species: HAMSTER, Strain/Sex: SYRIAN/MALE, Target Tissue: Type of Lesion: CHEEK POUCH: TUMOR, Dose [Carcinogen]: 0.5% IN ACETONE/HEAVY MINERAL OIL (1:20) 2/WK FOR 11 WK, Promoter: NONE USED): 13/13 (100%), 13/13 (100%), 0%, not significant | tumour outcome (control, treated, inhibition, significance) (Carcinogen: 7,12-DIMETHYLBENZ[A]ANTHRACENE, 57-97-6, Dose [Inhibitor]: 0, 500 MG/KG BW 3/WK FOR DURATION OF STUDY (STUDY DURATION: 13 WK), Route [Inhibitor]: INTRAPERITONEAL, Species: HAMSTER, Strain/Sex: SYRIAN/MALE, Target Tissue: Type of Lesion: CHEEK POUCH: TUMOR, Dose [Carcinogen]: 0.5% IN ACETONE/HEAVY MINERAL OIL (1:20) 2/WK FOR 11 WK, Promoter: NONE USED): 13/13 (100%), 13/13 (100%), 0%, not significant | tumour outcome (control, treated, inhibition, significance) (Carcinogen: N-METHYL-N-NITROSOUREA [684-93-5], Dose [Inhibitor]: 1000 PPM IN DIET FOR 19 WK BEGINNING 1 WK PRIOR TO FIRST CARCINOGEN DOSE (STUDY DURATION: 19 WK), Route [Inhibitor]: ORAL, Species: RAT, Strain/Sex: SPRAGUE-DAWLEY/FEMALE, Target Tissue: Type of Lesion: MAMMARY GLAND: TUMOR, Dose [Carcinogen]: 40 MG/KG BW ONCE (STUDY DURATION: 19 WK), Promoter: NONE): 18/20 (90%), 17/20 (85%), 6% not significant | tumour outcome (control, treated, inhibition, significance) (Carcinogen: N-METHYL-N-NITROSOUREA [684-93-5], Dose [Inhibitor]: 2000 PPM IN DIET FOR 19 WK BEGINNING 1 WK PRIOR TO FIRST CARCINOGEN DOSE (STUDY DURATION: 19 WK), Route [Inhibitor]: ORAL, Species: RAT, Strain/Sex: SPRAGUE-DAWLEY/FEMALE, Target Tissue: Type of Lesion: MAMMARY GLAND: TUMOR, Dose [Carcinogen]: 40 MG/KG BW ONCE (STUDY DURATION: 19 WK), Promoter: NONE): 18/20 (90%), 17/20 (85%), 6%, not significant
